# Reference: patent US20020148006A1, “Transgenic plants with modified sterol compositions” (Asgrow Seed Company, L.L.C., priority 1996, published 2002)
# Read-outs that look alike come from different tables or passages of the source.
# Assays:
# [1] = tested on: (S)-adenosyl-L-methionine: Δ^24-sterol methyl transferase (SMT); experiment: Effect of substrate and transition state analog inhibitors on soluble SMT enzyme from 4-day seedlings; assay type: biochemical, Zea mays (corn); settings: for Ki: soluble SMT, 4-day seedlings, NA = no inhibition; for Effect on the second methyl transfer / Type of inhibition / kinetic pattern / Effect on the first methyl transfer: soluble corn SMT
# yeast SMT enzyme = biological target: T1, yeast SMT enzyme (Saccharomyces cerevisiae, UniProt P25087); experiment: Substrate preference / binding of yeast SMT (ERG6 product); assay type: biochemical
# T1 construct: made in house; host or cells: E. coli, pET23a(+)
# T1 sequence (P25087 1-383): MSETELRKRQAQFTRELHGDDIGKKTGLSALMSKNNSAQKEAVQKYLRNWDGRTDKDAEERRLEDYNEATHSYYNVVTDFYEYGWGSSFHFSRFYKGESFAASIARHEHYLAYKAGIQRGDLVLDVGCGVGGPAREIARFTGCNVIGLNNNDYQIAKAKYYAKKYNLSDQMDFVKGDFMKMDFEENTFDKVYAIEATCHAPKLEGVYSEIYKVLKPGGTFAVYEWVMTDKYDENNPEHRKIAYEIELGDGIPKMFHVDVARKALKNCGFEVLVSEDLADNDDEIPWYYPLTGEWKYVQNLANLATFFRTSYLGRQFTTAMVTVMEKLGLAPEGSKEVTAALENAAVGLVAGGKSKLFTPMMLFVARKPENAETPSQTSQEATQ
# Excerpt: The cloned ERG6 gene was expressed in E. coli (Venkatramesh et al., 1996).
# Heliothis zea = experiment: Sterol utilization and metabolism by Heliothis zea reared on artificial diet with sterol supplement; settings: for Sterol composition (as % total sterol): ts: insect tissues, RP-HPLC and GC-MS; for Utilization by H. zea / support of larval growth and development (words): test sterol as sole added dietary sterol
# Experimental: Heliothis zea (corn earworm) was reared on an artificial diet treated with different sterol supplements to study the relation between sterol structure and utilization in insects. H. zea eggs were used to establish a disease-free stock colony.
# The stock insects were reared using sterile procedures on a pinto bean-based diet. Moths were fed 10% sucrose. Cultures were maintained at 27±1° C., at 40±10% relative humidity on a 14:10 light-dark photoperiod and an artificial diet was used to rear the insects on different sterol supplements. The experimental diet contained agar, which is known to contain trace contamination of cholesterol, otherwise the experimental diet was sterol-free.
# Sterols were solubilized in acetone. Aliquots of the solutions were added to the sterol-free diet in a mortar, the material mixed thoroughly with the diet, and the organic solvent allowed to evaporate. Sterols were supplied to the medium at 200 ppm (equivalent to 1 mg of sterol per experimental vessel containing one insect).
# By day 20, H. zea larva are in the final stage of larval development (sixth instar), after which the insects may pupate. A single neonate larva was placed in an experimental culture vial and allowed to grow for 20 days. The fresh weight, length and instar stage of 20-day larva were recorded.
# In some treatments, the larvae were allowed to grow for another 4 days to determine whether they could pupate properly and develop into moth forms.
# These fatty alcohols may comigrate with sterols during some forms of chromatography and interfere with sterol quantitation, particularly of cholesterol. Therefore, in order to confirm the identity and amount of cholesterol in the insect an aliquot of the NSF was injected into a HPLC column and the fraction corresponding to cholesterol was examined by GC-MS.
# [2] = tested on: yeast sterol auxotroph, GL-7; experiment: Growth support of yeast sterol auxotroph GL-7 cultured with test sterols; assay type: cell-based; settings: sterol added to culture medium
# Experimental: The phytosterols identified in Example 1 were tested individually for their ability to support growth. In the absence of a plant sterol mutant for such studies the yeast sterol auxotroph, GL-7, was cultured in the presence of sterols identified according to Example 1, above (Li, 1996). This yeast mutant is used as a model system because it can take up sterols from the culture medium and incorporate the test sterol into the membrane lipid bilayer and proliferate. The amount of proliferation of the cells was measured in the presence and absence of hormonal levels of ergosterol, the major yeast sterol.
# [3] = tested on: (S)-adenosyl-L-methionine: Δ^24-sterol methyl transferase (SMT); experiment: Sterol specificity (substrate methylation) of SMT enzyme from 4-day corn seedlings; assay type: biochemical, Zea mays (corn); settings: for Enzyme Activity: soluble SMT from corn seedlings, BG = background; for % Activity, relative to cycloartenol methylation: soluble SMT; for Substrate quality for corn SMT: soluble enzyme
# Experimental: The sterol specificity of the microsome-bound and soluble SMT enzyme from 4-day corn seedlings was determined in order to elucidate the enzymatic basis for the plant sterols identified in Example 1.
# Arabidopsis SMT = biological target: T2, Arabidopsis SMT (Arabidopsis thaliana, UniProt Q39227); experiment: Sterol transformation by recombinant Arabidopsis SMT expressed in E. coli; assay type: biochemical; settings: recombinant fusion protein
# T2 construct: The full-length ORF containing a Nde 1 site at the start; His-tag; made in house; host or cells: E. coli, pET23a(+)
# T2 sequence (Q39227 1-361): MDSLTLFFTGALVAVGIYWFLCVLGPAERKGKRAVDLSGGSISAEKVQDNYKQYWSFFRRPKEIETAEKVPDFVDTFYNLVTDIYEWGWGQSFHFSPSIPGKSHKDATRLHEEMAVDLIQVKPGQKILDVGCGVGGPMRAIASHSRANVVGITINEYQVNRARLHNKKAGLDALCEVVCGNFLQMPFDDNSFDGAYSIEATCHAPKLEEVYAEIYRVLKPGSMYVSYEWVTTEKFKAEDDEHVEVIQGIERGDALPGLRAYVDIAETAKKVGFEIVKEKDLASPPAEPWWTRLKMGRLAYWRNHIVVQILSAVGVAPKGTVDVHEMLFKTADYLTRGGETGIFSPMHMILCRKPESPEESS
# Excerpt: The SMT gene from Arabidopsis was cloned and sequenced (FIG. 6; SEQ ID NO:3). This gene containing a His-tag was overexpressed in E. coli (Tong et al., 1997). Arabidopsis SMT was partially purified and characterized in stereochemical detail.
# The Arabidopsis SMT gene was amplified by PCR from a cDNA library. The primers used were designed from the full-length cDNA sequence retrieved from the GeneBank (Accession number X89867). The amplified product was the full-length Arabidopsis SMT gene which was sub-cloned into a T/A cloning vector and sequenced. From the sequence data the ORF was identified. A Nde I site was created at the ATG start codon through PCR mediated site-directed mutagenesis. The full-length ORF containing a Nde 1 site at the start and a BamH I site at the stop was cloned into the pET23a(+) vector just as the ERG6 gene was in Example 4. […] In the case of cycloartenol only one product was formed, which is 24(28)-methylene cycloartanol, i.e., SMTI in FIG. 4. Since a single gene product was able to metabolize both sterol substrates it further confirms the enzymological data in Example 3.
# [4] = tested on: 3-hydroxy-3-methylglutaryl-coenzyme A reductase (HMGR); experiment: Microsomal HMGR activity during seedling development; assay type: biochemical, corn; set-up: dose or concentration left out as unconfirmed
# [5] = read-out: Ki relative to the first methyl transfer
# [6] = Table 11, sterol 200 ppm in diet
# [7] = Table 11, sterol 200 ppm in diet, 20-day larvae, relative to growth on cholesterol normalized to 100%
# [8] = read-out: Ki relative to the second methyl transfer
# [9] = substrates marked (C1), first methyl transfer
compound,measurement,setting,value
"26,27-Cyclopropylidene cycloartenol",Ki,[1]; [5],25 µM
same,Effect on the second methyl transfer,[1],not affecting the second methyl transfer
same,Type of inhibition / kinetic pattern,[1],potent competitive inhibitor
same,Substrate preference / binding to yeast SMT (words),yeast SMT enzyme,failed to bind to the yeast SMT enzyme
CC(C)[C@@H](C)/C=C/[C@@H](C)[C@H]1CC[C@H]2C3=CC=C4C[C@@H](O)CC[C@]4(C)[C@H]3CC[C@]12C [Ergosterol],Sterol composition (as % total sterol): ts,Heliothis zea; Table 11,36%
same,Instar reached by day 20,Heliothis zea; [6],3
same,Growth response,Heliothis zea; [7],30%
same,Effect on growth of GL-7,[2],sparking growth
C=C(CC[C@@H](C)[C@H]1CC[C@H]2C3=CCC4C(C)C(O)CC[C@]4(C)[C@H]3CC[C@]12C)C(C)C (stereo partly shown) [24(28)-Methylenelophenol],Vmax,[3]; second transmethylation,1 pmol/min/mg protein
same,Enzyme Activity,"[3]; substrates marked (C2), second methyl transfer","3,800 dpm/min"
same,"% Activity, relative to cycloartenol methylation","[3]; (C2), second methyl transfer",10 (C2) %
same,Substrate quality for corn SMT,[3],preferred sterol substrate for the second methylation reaction
same,Km,"[3]; sterol substrate of the second transmethylation, read-out: Km",11 µM
same,Transformation by recombinant Arabidopsis SMT,Arabidopsis SMT,active in transforming both cycloartenol and 24(28)-methylene lophenol to their respective alkyl products
CC=C(CCC(C)C1CCC2C3=CCC4C(C)C(O)CCC4(C)C3CCC21C)C(C)C (stereo not shown) [Z-24(28)-Ethylidene lophenol],Ki,[1]; [8],75 µM
same,Effect on the first methyl transfer,[1],not affecting the first methyl transfer
"CC(C)C(C)CCC(C)C1CCC2C3CC=C4CC(O)CCC4(C)C3CCC12C (stereo not shown) [Campesterol, campesterol]",Effect on the first methyl transfer,[1],failed to inhibit either the first or second methylation reaction
same,Effect on the second methyl transfer,[1],failed to inhibit either the first or second methylation reaction
CC(C)=CCC[C@@H](C)[C@H]1CC[C@@]2(C)C3=C(CC[C@]12C)[C@@]1(C)CC[C@H](O)C(C)(C)[C@@H]1CC3 [Lanosterol],Instar reached by day 20,Heliothis zea; [6],3
same,Growth response,Heliothis zea; [7],5%
same,Utilization by H. zea / support of larval growth and development (words),Heliothis zea,could not be met satisfactorily
same,Enzyme Activity,[3]; [9],"24,384 dpm/min"
same,"% Activity, relative to cycloartenol methylation","[3]; (C1), first methyl transfer",65 (C1) %
"CC(CCC1NC1(C)C)[C@H]1CC[C@@]2(C)C3=C(CC[C@]12C)[C@]1(C)CC[C@H](O)C(C)(C)[C@@H]1CC3 (stereo partly drawn) [24-(R,S)-25-Epiminolanosterol, 24-(R,S)-25-epiminolanosterol]",Type of inhibition / kinetic pattern,[1],non-competitive type kinetic pattern
CC(C)CCC[C@@H](C)[C@H]1CC[C@H]2C3=C(CC[C@]12C)[C@@]1(C)CCC(O)CC1CC3 (stereo partly shown) [Cholest-8-enol],Instar reached by day 20,Heliothis zea; [6],3
same,Growth response,Heliothis zea; [7],5%
same,Utilization by H. zea / support of larval growth and development (words),Heliothis zea,inability of cholest-8-enol to support growth
same,"% Activity, relative to cycloartenol methylation","[3]; (C1), first methyl transfer",0 (C1) %
"CCC(CCC(C)C1CCC2C3CC=C4CC(O)CCC4(C)C3CCC12C)C(C)C (stereo not shown) [Sitosterol, sitosterol]",Effect on HMGR activity,[4],neither sitosterol nor 24(28)-methylene cycloartanol at 100 mM affected HMGR activity
same,Sterol composition (as % total sterol): ts,Heliothis zea; Table 11,20%
same,Instar reached by day 20,Heliothis zea; [6],6
same,Growth response,Heliothis zea; [7],100%
same,Utilization by H. zea / support of larval growth and development (words),Heliothis zea,supported larval growth to late-sixth instar
same,"Ki, second methyl transfer",[1],100 µM
same,Ki,[1]; [8],100 µM
same,Effect on the first methyl transfer,[1],without affecting the first methyl transfer
same,Effect on growth of GL-7,[2],without affecting the rate of growth of the cells
CC(C)=CCC[C@@H](C)[C@H]1CC[C@H]2C3=C(CC[C@]12C)[C@@]1(C)CC[C@H](O)C[C@@H]1CC3 [Zymosterol],Enzyme Activity,[3]; [9],"5,252 dpm/min"
same,"% Activity, relative to cycloartenol methylation","[3]; (C1), first methyl transfer",14 (C1) %
same,Substrate quality for corn SMT,[3],poor sterol substrate of the first methylation reaction
same,Substrate preference / binding to yeast SMT (words),yeast SMT enzyme,preferred sterol substrate of yeast SMT enzyme
same,Substrate preference / binding to yeast SMT (words),yeast SMT enzyme; listed as zymosterol,preferred substrate of the yeast SMT
C=C(CCC(C)C1CCC2(C)C3CCC4C(C)(C)C(O)CCC45CC35CCC12C)C(C)C (stereo not shown) [24(28)-Methylene cycloartanol],Effect on HMGR activity,[4],neither sitosterol nor 24(28)-methylene cycloartanol at 100 mM affected HMGR activity
same,Ki,[1]; [5],20 µM
same,Effect on the second methyl transfer,[1],failed to inhibit the second methyl transfer
same,"% Activity, relative to cycloartenol methylation","[3]; (C2), second methyl transfer",0 (C2) %
CC(C)CCC[C@@H](C)[C@H]1CC[C@H]2[C@@H]3CC=C4C[C@@H](O)CC[C@]4(C)[C@H]3CC[C@]12C [Cholesterol],Dietary concentration that enhanced the rate of development of larvae,Heliothis zea; % of diet,≥ 0.015%
same,Minimal dietary concentration necessary for larvae to grow and pupate,Heliothis zea; % of the experimental diet,0.01%
same,Instar reached by day 20,Heliothis zea; [6],6
same,Growth response,Heliothis zea; [7],100%
same,Growth response,"Heliothis zea; Table 12, cholesterol / 24,25-dihydrolanosterol mixtures in diet",100
same,Instar reached by day 20,"Heliothis zea; Table 12, sterol mixtures",6
same,Sterol composition (as % total sterol): cholesterol,"Heliothis zea; Table 12, sterol recovered from insect",(100%)
same,Utilization by H. zea / support of larval growth and development (words),Heliothis zea,supported larval growth to late-sixth instar
same,Effect on growth of GL-7,[2],without affecting the rate of growth of the cells
